In patent publication US20160137639A1, “TRIAZOLE-ISOXAZOLE COMPOUND AND MEDICAL USE THEREOF” (JAPAN TOBACCO INC., priority 2012, published 2016):
Like-named read-outs stand apart in the source and are kept apart here.

What was measured:
[1] = target: T1, mouse RORγ (Mus musculus, UniProt P51450); test: Luciferase reporter gene assay of inhibitory effect against RORγ transcriptional activity (GAL4-mRORγ plasmid in CHO cells); format: cell-based
T1 construct: mouse, NM_011281.2 and from Ile251 to Lys516; expressed in transfected cells; host or cells: CHO cells (transient co-transfection with pG5-Luc reporter)
T1 sequence (P51450 251-516): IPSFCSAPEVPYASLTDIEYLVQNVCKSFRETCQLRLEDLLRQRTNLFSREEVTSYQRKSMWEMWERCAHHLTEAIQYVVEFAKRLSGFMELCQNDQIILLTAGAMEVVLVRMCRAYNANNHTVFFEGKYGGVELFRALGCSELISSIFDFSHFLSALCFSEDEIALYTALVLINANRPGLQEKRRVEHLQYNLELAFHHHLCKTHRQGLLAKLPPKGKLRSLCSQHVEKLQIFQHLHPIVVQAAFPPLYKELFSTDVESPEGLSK
In short: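 CHO cells transiently co-transfected with GAL4-mouse RORγ LBD (Ile251–Lys516) and GAL4-dependent luciferase reporter; eight compound concentrations, 0.1% DMSO, 2 days at 37 °C. Luminescence as %-of-vehicle control; EC50 by curve fit, cytotoxic concentrations excluded.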

[2] = target: T2, human RORγ (Homo sapiens, UniProt P51449); test: Luciferase reporter gene assay of inhibitory effect against RORγ transcriptional activity (GAL4-hRORγ plasmid in CHO cells); format: cell-based
T2 construct: human, NM_005060.3 and from Ser253 to Lys518; expressed in transfected cells; host or cells: CHO cells (transient co-transfection with pG5-Luc reporter)
T2 sequence (P51449 253-518): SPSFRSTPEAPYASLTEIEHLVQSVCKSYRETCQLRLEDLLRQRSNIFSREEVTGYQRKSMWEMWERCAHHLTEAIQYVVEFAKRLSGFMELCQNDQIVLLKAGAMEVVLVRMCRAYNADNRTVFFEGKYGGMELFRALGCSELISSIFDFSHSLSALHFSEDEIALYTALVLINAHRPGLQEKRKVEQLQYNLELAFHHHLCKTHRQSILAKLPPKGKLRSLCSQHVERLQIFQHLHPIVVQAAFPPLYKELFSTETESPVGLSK

Compound | EC50 ([1]; read-out: LUC EC50 (μM) mRORg) | EC50 ([2]; read-out: LUC EC50 (μM) hRORg) | EC50 ([1]; read-out: LUC EC50 mRORg) | EC50 ([2]; read-out: LUC EC50 hRORg)
Cc1c(Cl)cccc1NC(=O)CCc1nnc(C(O)CC(C)C)n1C1CC1 (racemic) [Example F-182] | < 3 µM | > 3 µM | – | –
Cc1cc(F)ccc1NC(=O)C[C@H](CC(C)C)c1nnc(-c2cc(CC(C)C)on2)n1C1CC1 [Example F-607] | – | – | < 3 µM | < 3 µM
COc1cc(C)ccc1CNC(=O)C[C@H](NC(C)=O)c1nnc(CCCC(C)C)n1C1CC1 [Example F-312] | > 3 µM | > 3 µM | – | –
Cc1c(Cl)cccc1NC(=O)CC(CCCO)c1nnc(CCCC(C)C)n1C1CC1 (racemic) [Example F-212] | < 3 µM | < 3 µM | – | –
Cc1cc(Cl)ccc1NC(=O)C[C@H](CCO)c1nnc([C@H]2C[C@@H](CC(C)C)C2)n1C1CC1 [Example F-525] | – | – | < 3 µM | < 3 µM
Cc1ccc(NC(=O)[C@H]2CN(C(=O)CCC(=O)O)C[C@@H]2c2noc([C@H]3C[C@@H](CC(C)(C)C)C3)c2C2CC2)c(Cl)c1 [Example F-688, 4-((3R,4R)-3-(2-Chloro-4-methyl-phenylcarbamoyl)-4-{4-cyclopropyl-5-[3-(2,2-dimethyl-propyl)-cyclobutyl]-isoxazol-3-yl}pyrrolidin-1-yl)-4-oxo-butanoic acid] | – | – | < 3 µM | < 3 µM
Cc1cc(F)ccc1NC(=O)C[C@H](OC(C)C)c1nnc(-c2cc(CC(C)C)on2)n1C1CC1 [Example F-576] | – | – | < 3 µM | < 3 µM
CC(=O)N1C[C@@H](C(=O)Nc2ccc(C)cc2C)[C@H](c2nnc(-c3ccc(CC(C)C)cc3)n2C2CC2)C1 [Example F-407] | > 3 µM | > 3 µM | – | –
CC(=O)N1C[C@H](C(=O)Nc2ccc(C)cc2C)[C@@H](c2nnc(C3CN(S(=O)(=O)C(C)C)C3)n2C2CC2)C1 (racemic) [Example F-418] | > 3 µM | > 3 µM | – | –
Cc1ccc(NC(=O)CCc2nnc(CCCC(C)C)n2C2CC2)c(C)c1 [Example F-215] | < 3 µM | < 3 µM | – | –
Cc1ccc(Cl)cc1NC(=O)CCc1nnc(CCC(C)C)n1C1CC1 [Example F-131] | > 3 µM | > 3 µM | – | –
CCn1c(CCC(=O)Nc2cccc3ccccc23)nnc1C1Cc2ccccc2C1 [Example F-1] | < 3 µM | < 3 µM | – | –
COCC(C)(C)C[C@H]1C[C@@H](c2onc([C@@H](CCC(=O)O)CC(=O)Nc3ccc(CO)cc3Cl)c2C2CC2)C1 [Example F-724] | – | – | < 3 µM | < 3 µM
Cc1ccc(NC(=O)[C@H]2CC(F)(F)C[C@@H]2c2nnc(-c3cc(CC(C)C)on3)n2C2CC2)c(C)c1 (racemic) [Example F-570] | – | – | > 3 µM | < 3 µM
CC(=O)N1C[C@H](C(=O)Nc2cccc(Cl)c2C)[C@@H](c2nnc(CCC(C)C)n2C2CC2)C1 (racemic) [Example F-145] | < 3 µM | < 3 µM | – | –
CC(=O)N1C[C@H](C(=O)Nc2ccc(C)cc2C)[C@@H](c2nnc([C@H]3CC[C@H](C(C)C)CC3)n2C2CC2)C1 (racemic) [Example F-300] | < 3 µM | < 3 µM | – | –
CC1(C(F)(F)c2cc(-c3onc([C@@H](CCC(=O)O)CC(=O)Nc4ccc(Cl)cc4F)c3C3CC3)no2)CC1 [Example E-67] | < 3 µM | < 3 µM | – | –
Cc1c(Cl)cccc1NC(=O)CCc1nnc(CCC(C)C)n1C1CC1 [Example F-55] | < 3 µM | > 3 µM | – | –
Cc1ccc(NC(=O)C[C@H](CC(C)C)c2noc(-c3cc(CC(C)C)on3)c2C2CC2)c(C)c1 [Example F-635] | – | – | < 3 µM | < 3 µM
Cc1ccc(NC(=O)[C@H]2CN(S(=O)(=O)C(F)(F)F)C[C@@H]2c2nnc(-c3cc(CC(C)C)on3)n2C2CC2)c(C)c1 [Example F-547] | – | – | < 3 µM | < 3 µM
COC1C[C@H](C(=O)Nc2ccc(C)cc2C)[C@@H](c2nnc([C@H]3C[C@@H](CC(C)C)C3)n2C2CC2)C1 (single isomer, unassigned) [Example F-556] | – | – | < 3 µM | < 3 µM
Cc1ccc(NC(=O)[C@@H](CCC(=O)O)Cc2noc([C@H]3C[C@@H](CC(C)(C)C)C3)c2C2CC2)c(Cl)c1 [Example F-684, (S)-4-(2-chloro-4-methyl-phenylcarbamoyl)-5-{4-cyclopropyl-5-[3-(2,2-dimethyl-propyl)-cyclobutyl]-isoxazol-3-yl}-pentanoic acid] | – | – | < 3 µM | < 3 µM
Cc1ccc(NC(=O)C[C@@H](CCO)c2nnc([C@H]3C[C@@H](CC(C)C)C3)n2C2CC2)c(C)c1 [Example F-360] | > 3 µM | > 3 µM | – | –
Cc1ccc(NC(=O)CCc2nnc(C3(O)CC(CC(C)C)C3)n2C2CC2)c(C)c1 (single isomer, unassigned) [Example F-429] | < 3 µM | < 3 µM | – | –
Cc1ccc(NC(=O)CC(CCO)c2nnc(CCCC(C)(C)C)n2C2CC2)c(C)c1 (racemic) [Example F-307] | < 3 µM | < 3 µM | – | –

Compound | EC50 ([1]; read-out: LUC EC50 (μM) mRORg) | EC50 ([2]; read-out: LUC EC50 (μM) hRORg) | EC50 ([1]; read-out: LUC EC50 mRORg) | EC50 ([2]; read-out: LUC EC50 hRORg)
Cc1ncccc1NC(=O)CCc1nnc(CCC(C)C)n1C1CC1 [Example F-91] | > 3 µM | > 3 µM | – | –
CC(C)C[C@H]1C[C@@H](c2nnc([C@@H](CCO)CC(=O)Nc3ccc(F)cc3Cl)n2C2CC2)C1 [Example F-513] | – | – | < 3 µM | < 3 µM
CNC(=O)C(C)(C)CCCc1nnc(CCC(=O)Nc2cccc(Cl)c2C)n1C1CC1 [Example F-237] | > 3 µM | > 3 µM | – | –
CCn1c(CCC(=O)Nc2cc(C)cc(C)c2)nnc1CCC(C)C [Example F-50] | > 3 µM | > 3 µM | – | –
Cc1ccc(NC(=O)CC(Cc2nnn[nH]2)c2nnc([C@H]3C[C@@H](CC(C)C)C3)n2C2CC2)c(C)c1 (mixture of isomers) [Example F-481] | > 3 µM | > 3 µM | – | –
CC(C)(CO)C[C@H]1C[C@@H](c2onc([C@@H](CCC(=O)O)CC(=O)Nc3ccc(CO)cc3Cl)c2C2CC2)C1 [Example F-726] | – | – | > 3 µM | > 3 µM
CC(C)CCc1nnc(CCC(=O)NC2CCCCC2C)n1C1CC1 (centres unmarked) [Example F-102] | > 3 µM | > 3 µM | – | –
Cc1ccc(NC(=O)C[C@H](CCC(=O)O)c2noc(-c3cc(CCC(F)(F)F)on3)c2C2CC2)c(Cl)c1 [Example E-50] | < 3 µM | < 3 µM | – | –
Cc1c(Cl)cccc1NC(=O)CCc1nnc(CCC(=O)O)n1C1CC1 [Example F-185] | > 3 µM | > 3 µM | – | –
Cc1ccc(NC(=O)[C@H]2CN(S(=O)(=O)C(F)(F)F)C[C@@H]2c2nnc(CCCC(C)(C)C)n2C2CC2)c(C)c1 (racemic) [Example F-527] | – | – | < 3 µM | < 3 µM
Cc1c(F)ccc(NC(=O)C[C@H](CCO)c2nnc([C@H]3C[C@@H](CC(C)C)C3)n2C2CC2)c1C [Example F-623] | – | – | < 3 µM | < 3 µM
CC(=O)N1C[C@H](C(=O)Nc2ccc(Cl)cc2C)[C@@H](c2nnc(-c3cc(CC(C)C)on3)n2C2CC2)C1 [Example F-613] | – | – | < 3 µM | < 3 µM
Cc1ccc(NC(=O)C[C@H](NC(=O)OCc2ccccc2)c2nnc(CCCC(C)(C)C)n2C2CC2)c(C)c1 [Example F-355] | < 3 µM | < 3 µM | – | –
CN[C@@H](CC(=O)Nc1ccc(C)cc1C)c1nnc(CCCC(C)(C)C)n1C1CC1 [Example F-353] | < 3 µM | < 3 µM | – | –
CCn1c(CCC(=O)Nc2ccc(C)cc2C)nnc1CCC(C)(C)C [Example F-47] | < 3 µM | > 3 µM | – | –
CC(C)(C)C[C@H]1C[C@@H](c2onc([C@@H](CCC(=O)O)CC(=O)NCC3CCOCC3)c2C2CC2)C1 [Example F-736] | – | – | > 3 µM | > 3 µM
Cc1ccc(NC(=O)CCc2noc([C@H]3C[C@@H](CC(C)C)C3)c2CCC(=O)O)c(C)c1 [Example F-664] | – | – | > 3 µM | > 3 µM
Cc1ccc(NC(=O)C[C@@H](CCO)c2noc([C@H]3C[C@@H](CC(C)C)C3)c2C2CC2)c(C)c1 [Example F-579] | – | – | < 3 µM | < 3 µM
Cc1ccc(NC(=O)CCc2noc(C(F)(F)c3cc(C(C)(C)C)on3)c2C2CC2)c(Cl)c1 [Example F-745] | – | – | < 3 µM | < 3 µM
CC(C)(C)C[C@H]1C[C@@H](c2onc(CCC(=O)Nc3ccc(Cl)cc3Cl)c2C2CC2)C1 [Example F-720] | – | – | < 3 µM | < 3 µM
CC(C)CCc1nnc(CCC(=O)NCCc2ccccc2)n1C1CC1 [Example F-58] | > 3 µM | > 3 µM | – | –
CCCC(CCC)NC(=O)CCc1nnc(C2Cc3ccccc3C2)n1CC [Example F-28] | > 3 µM | > 3 µM | – | –
CCOC(=O)C(CC(=O)Nc1cccc(Cl)c1C)c1nnc(CCC(C)C)n1C1CC1 (racemic) [Example F-159] | > 3 µM | > 3 µM | – | –
Cc1ccc(NC(=O)C[C@H](CCO)c2nnc(CCC3CCCCC3)n2C2CC2)c(C)c1 [Example F-385] | < 3 µM | < 3 µM | – | –
